Experimental data reported in patent US6444688B1, “Compounds and compositions with nitrogen-containing non-basic side chains” (Eli Lilly and Company, priority 1995, dated 2002).
Values joined by “and” are separate entries in the source; they are usually repeats but may differ in a detail not shown here. Equal entries are not always repeated. Marks after values point to notes of the source that are not given here.

Experiments:
Type in all cases: in vivo, Sprague Dawley rats
[1] = test system: ovariectomized (OVX) rats; test: Four day dosing regimen, post-menopausal rat model: wet uterine weight; details: OVX rats, oral, daily for 4 days
Description: (§1) Animals were dosed daily for 4 days. […] A blood sample was collected by cardiac puncture.

[2] = test system: uterine eosinophil peroxidase activity; test: Uterine eosinophil peroxidase (EPO) assay, four day dosing; details: OVX rats, oral, daily for 4 days
Description: as §1

[3] = test system: ovariectomized (OVX) rats; test: Serum cholesterol analysis, four day dosing; details: Rattus norvegicus, po, 96 h, OVX rats, oral, daily for 4 days, read-out: Serum Cholesterol (% dec. OVX)
Description: as §1
Blood samples were allowed to clot at room temperature for 2 hours, and serum was obtained following centrifugation for 10 minutes at 3000 rpm. Serum cholesterol was determined using a Boehringer Mannheim Diagnostics high performance cholesterol assay. Briefly the cholesterol was oxidized to cholest-4-en-3-one and hydrogen peroxide. The hydrogen peroxide was then reacted with phenol and 4-aminophenazone in the presence of peroxidase to produce a p-quinone imine dye, which was read spectrophotemetrically at 500 nm. Cholesterol concentration was then calculated against a standard curve. The entire assay was automated using a Biomek Automated Workstation.

SMILES | Uterine Weight (% inc. OVX) ([1]; dose 0.1 mg/kg) | Uterine Weight (% inc. OVX) ([1]; dose 1 mg/kg) | Uterine Weight (% inc. OVX) ([1]; dose 10 mg/kg) | Uterine EPO (Vmax) ([2]; dose 0.1 mg/kg) | Uterine EPO (Vmax) ([2]; dose 1 mg/kg) | Uterine EPO (Vmax) ([2]; dose 10 mg/kg) | inhibition in vivo at 0.01 mg/kg ([3]; dose 0.01 mg/kg) [%] | inhibition in vivo at 0.1 mg/kg [3] [%] | inhibition in vivo at 10 mg/kg [3] [%] | Uterine Weight (% inc. OVX) ([1]; dose 0.01 mg/kg) | Uterine EPO (Vmax) ([2]; dose 0.01 mg/kg) | inhibition in vivo at 1 mg/kg [3] [%]
O=C(c1ccc(OCCN2CCCCC2=O)cc1)c1c(-c2ccc(O)cc2)sc2cc(O)ccc12 [Compound 3] | 13.3 | 17.8 % inc. OVX | 57.6* % inc. OVX | 8.0 Vmax | 7.8 Vmax | 8.9 Vmax | – | – | – | – | – | –
O=C(c1ccc(OCCN2CCCC2=O)cc1)c1c(-c2ccc(O)cc2)sc2cc(O)ccc12 [Compound 6] | −9 | 15.4 % inc. OVX | 40.3* % inc. OVX | 3.6 Vmax | 1.4 Vmax | 3.7 Vmax | – | – | – | – | – | –
O=C(c1ccc(OCC(=O)N2CCCC2)cc1)c1c(-c2ccc(O)cc2)sc2cc(O)ccc12 [Compound 8] | – | – | – | 3.6 Vmax and 4.4 Vmax | 6.1 Vmax and 3.7 Vmax | – | 27.2 | 17.4 | 70.3 | −22.9 | 3.5 | –
O=C(c1ccc(OCC(=O)N2CCCCC2)cc1)c1c(-c2ccc(O)cc2)sc2cc(O)ccc12 [Compound 9] | −10.0 | 6.5 % inc. OVX | 51.7* % inc. OVX | 2.8 Vmax | 3.6 Vmax | 32 Vmax | – | – | – | – | – | –
CCCCN(C)C(=O)COc1ccc(C(=O)c2c(-c3ccc(O)cc3)sc3cc(O)ccc23)cc1 [Compound 10] | 1.5 | −6.7 % inc. OVX | 38.0* % inc. OVX | 4.3 Vmax | 3.1 Vmax | 17.0 Vmax | – | – | – | – | – | –
CN(C)C(=O)COc1ccc(C(=O)c2c(-c3ccc(O)cc3)sc3cc(O)ccc23)cc1 [Compound 12] | −7.7 | 15.4 % inc. OVX | 60.7* % inc. OVX | 3.7 Vmax | 6.7 Vmax | 122.3* Vmax | – | – | – | – | – | –
O=C(c1ccc(OCCN2C(=O)CCC2=O)cc1)c1c(-c2ccc(O)cc2)sc2cc(O)ccc12 [Compound 13] | 22.2 | 7.2 % inc. OVX | −4.0 % inc. OVX | 1.9 Vmax | 1.7 Vmax | 2.5 Vmax | – | – | – | – | – | –
N#CCOc1ccc(C(=O)c2c(-c3ccc(O)cc3)sc3cc(O)ccc23)cc1 [Compound 14] | 18.8 | 14.6 % inc. OVX | 124.6* % inc. OVX | 3.3 Vmax | 2.4 Vmax | 145.8* Vmax | – | – | 91.1 | – | – | –
CC(C#N)Oc1ccc(C(=O)c2c(-c3ccc(O)cc3)sc3cc(O)ccc23)cc1 (stereo not shown) [Compound 16] | 0.7 | 27.4 % inc. OVX | 99.2* % inc. OVX | 2.3 Vmax | 3.9 Vmax | 23.4 Vmax | – | 3.4 | 71.2 | – | – | 28.8
O=C(NCCOc1ccc(C(=O)c2c(-c3ccc(O)cc3)sc3cc(O)ccc23)cc1)c1ccccc1 [Compound 18] | 16.1 | 25.7 % inc. OVX | 12.6 % inc. OVX | 3.2 Vmax | 3.6 Vmax | 3.6 Vmax | – | -10.8 | 12.8 | – | – | -12.2
CC(=O)N(CCOc1ccc(C(=O)c2c(-c3ccc(O)cc3)sc3cc(O)ccc23)cc1)C1CCCCC1 [Compound 19] | 7 | −25.5* % inc. OVX | 47.0* % inc. OVX | 5.4 Vmax | 3.7 Vmax | 29.3* Vmax | – | – | 52.2 | – | – | 20.1
O=C(NCCOc1ccc(C(=O)c2c(-c3ccc(O)cc3)sc3cc(O)ccc23)cc1)NC1CCCCC1 [Compound 20] | −29.9 | −27.4 % inc. OVX | −32.7 % inc. OVX | 3.0 Vmax | 2.5 Vmax | 2.9 Vmax | – | – | – | – | – | –
O=C(c1ccc(OCCNC(=O)C2CCCCC2)cc1)c1c(-c2ccc(O)cc2)sc2cc(O)ccc12 [Compound 21] | −5.5 | −11.5 % inc. OVX | 8.6 % inc. OVX | 3.1 Vmax | 2.6 Vmax | 2.4 Vmax | – | 9.3 | 24 | – | – | 0.5
CC(C)(C)C(=O)N1CCCCC1COc1ccc(C(=O)c2c(-c3ccc(O)cc3)sc3cc(O)ccc23)cc1 (stereo not shown) [Compound 22] | 1.9 | 19.6 % inc. OVX | 46.9* % inc. OVX | 3.5 Vmax | 20.0 Vmax | 69.5* Vmax | – | 22.1 | 71.5 | – | – | 36.2
CC(C)(C)C(=O)N1CCC(Oc2ccc(C(=O)c3c(-c4ccc(O)cc4)sc4cc(O)ccc34)cc2)CC1 [Compound 23] | −4.3 | 0.8 % inc. OVX | 22.3 % inc. OVX | 1.6 Vmax | 3.8 Vmax | 6.7 Vmax | – | – | 55.8 | – | – | –
CC(=O)NCCOc1ccc(C(=O)c2c(-c3ccc(O)cc3)sc3cc(O)ccc23)cc1 [Compound 26] | −17.5 | −28.8* % inc. OVX | 25.8* % inc. OVX | 1.3 Vmax | 0.7 Vmax | 13.6 Vmax | – | – | 32.8 | – | – | 19
